Records with an inconclusive call do not appear. Calls of active or inactive are those of the source. How the calls were made is not given here. Some results are limits rather than exact numbers.

102 compounds from PubChem BioAssay AID488890 (Southern Research Specialized Biocontainment Screening …, 2010) can be followed below.

The subject of this assay is Mycobacterium tuberculosis non-replicating, growth inhibition. As to the kind of experiment: growth inhibition of non-replicating M. tuberculosis (AID 488890).
On to `c1ccc(CNCCC(Cc2ccccc2)c2ccco2)cc1` (configuration not stated), for which the IC50 was 21.6 µM (inactive). As for `CCc1ccc(NC(=O)COc2ccc3c(c2)OCO3)cc1`, the IC50 is 5.33 µM. Regarding `COc1cc(C=O)ccc1OCCOCCOc1ccc(Cl)cc1`, the IC50 is 27.8 µM (inactive). Then `O=C(O)COc1ccc2occ(C(=O)c3ccccc3)c2c1`, with 6.46 µM; and `CCOC(=O)C(C)Oc1cc(Cl)c(C=O)cc1OC` (configuration not stated), with 8.06 µM. In the case of `Oc1oc(-c2ccco2)nc1C=Nc1cccc(Cl)c1`, the IC50 is 7.88 µM. Next, `Nc1nc2ccccc2n1CCOc1ccccc1Cl`: 7.58 µM; `Cc1ccc(NC(=O)COC(=O)CCc2c[nH]c3ccccc23)cc1[N+](=O)[O-]`: 4.83 µM; `Cc1ccccc1N1CCN(Cc2ccc([N+](=O)[O-])o2)CC1`: 3.25 µM.

As to `CCOC(=O)C1CCCc2c1[nH]c1c(C(N)=O)cccc21` (configuration not stated), the half-inhibitory concentration (IC50) was 9.99 µM. As to `CCCCCCn1c(=O)c(C(=O)Nc2cnccn2)c(O)c2ccccc21`, the IC50 was 2.4 µM. For `NC(=O)C1(N2CCCCC2)CCN(C2CC(=O)N(CCc3ccccc3)C2=O)CC1` (configuration not stated), the IC50 is 13 µM (inactive). Then `CC(=O)N1CCC(=NNC(=O)c2cccs2)CC1`, with 20.7 µM (inactive); and `c1ccc(-c2nnc(SCc3cn4ccsc4n3)o2)cc1`, with 11.1 µM (inactive). Take `CC(=O)Oc1c(-c2ccco2)oc2ccccc2c1=O`: the IC50 was 10.6 µM (inactive). In the case of `CC(C)CN1C(=O)CC(Sc2ccccc2C(=O)O)C1=O` (configuration not stated), the IC50 was 26.7 µM (inactive). For the compound `O=C1CC(N2CCN(Cc3ccccc3)CC2)C(=O)N1CCc1ccccc1` (configuration not stated), the IC50 is 22.3 µM (inactive).

Regarding `CCC1(O)CC(c2ccccc2)=NN1C(=O)c1ccccc1F` (configuration not stated), the IC50 was 3.45 µM.

Take `CC1=NN(c2ccc(C(=O)O)cc2)C(=O)/C1=C\c1ccc(OC(=O)c2cccs2)cc1`: the half-inhibitory concentration (IC50) was 7.5 µM. On to `CCOc1cccc(CNCCc2c(C)[nH]c3ccc(OC(F)(F)F)cc23)c1O`, for which the concentration for half-maximal inhibition (IC50) is 9.79 µM.

Regarding `O=C(NNC(=O)c1ncc(Cl)c(Cl)c1Cl)c1ccc(F)cc1`, the IC50 was 15.1 µM (inactive). Turning to `CCCOC(=O)c1ccc(NC(=O)Cc2cccs2)cc1`, the IC50 was 24.1 µM (inactive). For the compound `Cc1ccccc1C(=O)NNc1ccc([N+](=O)[O-])cc1`, the IC50 was 20.4 µM (inactive). Next, `Cc1ccc2c(C)ccc(O)c2n1`: 5.18 µM. For the compound `CCCCN(C)S(=O)(=O)c1ccc(C(=O)Nc2nnc(-c3ccco3)o2)cc1`, the IC50 is 23 µM (inactive). Then `Cc1csc(NC(=O)c2cc([N+](=O)[O-])cc([N+](=O)[O-])c2)n1`, with 7.76 µM; and `CCOC(=O)c1cc(-c2csc(COc3ccc(Cl)cc3)n2)on1`, with 0.13 µM; and `O=C(O)c1ccc(CN2C(=O)CSC2=S)cc1`, with 9 µM. Then `O=C(CN1CCOCC1)N/N=C/c1ccc(-c2ccc(Br)cc2)o1`, with 4.3 µM; and `CN1C2CCC1/C(=C/c1ccccn1)C(=O)/C2=C\c1ccccn1`, with 16.3 µM (inactive); and `COC(=O)C1CC(=O)N(c2ccc(OCc3ccccc3Cl)cc2)C1` (configuration not stated), with 3.53 µM.

In the case of `CCCOc1ccc(C(=O)C(CN2CCCC2)c2ccccc2)cc1` (configuration not stated), the IC50 is 3.82 µM.

Turning to `CC[n+]1c(/C=C(\C)Nc2ccccc2)sc2ccccc21`, the IC50 was 6.34 µM.

As to `Cc1ccc(C2=N/C(=C\c3cccnc3)C(=O)O2)cc1`, the concentration for half-maximal inhibition (IC50) was 6.58 µM. In the case of `COc1ccccc1N=Cc1nc(-c2ccccc2)oc1OC(C)=O`, the IC50 is 19.6 µM (inactive). `Cc1ccc(S(=O)(=O)NCC(=O)OCCOc2cccc(Cl)c2)cc1`: the IC50 is 27.7 µM (inactive). `c1ccc(-c2noc(CC3CCCCC3)n2)nc1`: the IC50 is 1.18 µM. For `CCN(CC)Cc1ccc(NC(=O)c2sc3cc(Cl)ccc3c2Cl)cc1`, the IC50 was 11.2 µM (inactive). With `Cc1cc(Br)ccc1OCC(=O)NNC(=O)c1cnccn1`, the IC50 is 6.09 µM.

For `Cn1cnc([N+](=O)[O-])c1Sc1ccc([N+](=O)[O-])cc1`, the IC50 was 19.7 µM (inactive).

With `CCc1cc2c(=O)n(C(C)C(=O)OC3CCCCC3)cnc2s1` (configuration not stated), the IC50 was 16.6 µM (inactive). Take `Cc1cc(C(=O)N/N=C/c2cccc(Cl)c2Cl)no1`: the half-maximal inhibitory concentration (IC50) was 1.01 µM.

Regarding `Cc1ccc(OCC(=O)N2CCCc3ccccc32)cc1`, the IC50 was 6.25 µM. For `Cc1cc(Cl)cc(C)c1OCCCCn1ccnc1`, the IC50 is 16.9 µM (inactive).

Turning to `CCOC(=O)Cn1c(-c2ccccc2)ccc(C#N)c1=O`, the IC50 is 4.71 µM. Take `CCn1c(NC(=O)C2CCCCC2)nc2ccccc21`: the IC50 was 4.53 µM.

With `COc1ccc(C(O)CNc2ccc(C)cc2)cc1` (configuration not stated), the IC50 is 43.2 µM (inactive). In the case of `CC1CCc2c(sc3nc(CSc4ncn[nH]4)[nH]c(=O)c23)C1` (configuration not stated), the IC50 was 14.4 µM (inactive).

For `Cc1c(Cl)cccc1NC(=O)C(=O)NNC(=O)c1ccccc1F`, the half-inhibitory concentration (IC50) was 1.59 µM. As to `CCc1nonc1NC(=O)COc1ccc(Cl)c(C)c1`, the IC50 was 9.9 µM.

Take `COc1ccc(NC(=O)C2COc3ccccc3O2)cc1` (configuration not stated): the IC50 is 4.43 µM. Then `CCN(CC)CCSc1nnc2c3cc(C)ccc3n(Cc3ccccc3)c2n1`, with 14.3 µM (inactive). In the case of `COc1ccc(Nc2cc(C)nc(-n3nc(C)cc3C)n2)cc1`, the IC50 is 4.02 µM.

In the case of `Cc1ccccc1OCC(=O)OCC(=O)c1ccc[nH]1`, the IC50 is 21.2 µM (inactive). As to `CCCC(=O)Nc1cccc(-c2nc3ccccc3c(=O)o2)c1`, the concentration for half-maximal inhibition (IC50) was 0.97 µM. Take `Cc1cccc(NC(=O)CO/N=C/c2ccc3c(c2)OCO3)c1`: the IC50 was 10.2 µM (inactive). `CCC(=O)Nc1nc2ccccc2n1Cc1ccccc1`: the IC50 was 4.86 µM. Then `Cc1ccc(-c2nnc(NC(=O)c3ccco3)o2)c(C)c1`, with 6.85 µM. Turning to `Cc1cccc(OCCCCc2c(C)n[nH]c2C)c1`, the 50% inhibitory concentration (IC50) is 9.86 µM. Then `O=C(CCCOc1ccccc1)OCn1nnc2ccccc2c1=O`, with 24.8 µM (inactive); and `CCOC(=O)c1c(NC(=O)COC(=O)c2ccccn2)sc2c1CCC2`, with 7.87 µM; and `O=C(OCC(=O)c1c[nH]c2ccccc12)c1ccc([N+](=O)[O-])s1`, with 0.79 µM. With `O=C1CCCC(O)=C1C=Nc1ccc2c(c1)oc1ccccc12`, the IC50 is 8.18 µM. As to `CCOC(=O)Nc1cccc(OCC(=O)Nc2ccccc2OC)c1`, the IC50 was 16.6 µM (inactive). `CCCCOc1ccc(CSCCN)cc1Cl`: the IC50 was 27.8 µM (inactive). Turning to `CCc1ccc(Cc2cnc(NC(=O)C3=NCCN3)s2)cc1`, the 50% inhibitory concentration (IC50) was 2.85 µM.

Turning to `COc1cc2[nH]c(Cl)c([N+](=O)[O-])c2cc1OC`, the IC50 was 14.1 µM (inactive). Next, `O=S(=O)(Nc1ccc(O)c2ccccc12)c1ccc(F)cc1`: 6.47 µM; `CCCC(C)C(=O)Nc1ccc(Cl)cn1` (configuration not stated): 10.3 µM (inactive). Then `O=C(Nc1ncc(Cc2ccccc2Cl)s1)C1=NCCN1`, with 4.18 µM; and `CCc1ccc(N2C(=O)NC(=O)/C(=C\C=C\c3ccco3)C2=O)cc1`, with 10.9 µM (inactive). As for `Cc1onc(-c2ccccc2Cl)c1C(=O)O/N=C(\N)c1ccc([N+](=O)[O-])o1`, the concentration for half-maximal inhibition (IC50) was 4.55 µM. As to `NC(=O)c1ccc(N=Cc2ccc([N+](=O)[O-])s2)cc1`, the IC50 is 11.8 µM (inactive). `CCCCCCCCCCn1cc(C(C)=O)c(=O)[nH]c1=O`: the concentration for half-maximal inhibition (IC50) is 4.74 µM.

Consider `Cc1cc([N+](=O)[O-])ccc1NC(=O)Nc1ccc(F)cc1F`, for which the IC50 was 21.9 µM (inactive). Take `CC(C)CCCn1c(O)c(/C=C2/C=CC=N2)c(=O)[nH]c1=O`: the 50% inhibitory concentration (IC50) was 0.27 µM.

Regarding `C/C(=N/NC(=O)c1cccc(C)c1)c1c(O)cc(C)oc1=O`, the concentration for half-maximal inhibition (IC50) is 9.19 µM. Turning to `O=C1C=C(Nc2ccc(F)cc2)c2ccccc2C1=O`, the IC50 is 5.36 µM. `O=c1c2c([N+](=O)[O-])cc([N+](=O)[O-])cc2sn1-c1ccc(Br)cc1`: the IC50 was 18.5 µM (inactive). Regarding `CCOc1ccc(NC(=O)CCc2ccc(C)o2)cc1`, the IC50 was 7.77 µM. For `Cc1cccc(-c2nnc3sc(-c4ccccc4C)nn23)c1`, the IC50 was 22.4 µM (inactive). For the compound `CCCCCn1nnc2c(=O)oc3ccccc3c21`, the IC50 is 1.2 µM. For `O=C(NCCCN1CCOCC1)c1ccc(CSc2ccc(Cl)cc2)cc1`, the IC50 was 29 µM (inactive). Consider `Cc1ccc(NC(=O)c2ccc([N+](=O)[O-])o2)c(C)c1`, for which the IC50 was 8.9 µM. On to `COc1ccc(-c2nnn(Cc3ccccc3)n2)cc1`, for which the IC50 was 12.4 µM (inactive).

Turning to `N/C(=N/OC(=O)c1ccccc1Cl)c1ncc([N+](=O)[O-])s1`, the IC50 is 3.15 µM. Then `CCn1cc(C(=O)NC(C)C23CC4CC(CC(C4)C2)C3)cn1` (configuration not stated), with 2.73 µM. Take `O=C(COc1ccc2ccccc2c1)Nc1ccncc1`: the IC50 was 3.17 µM. Then `CCOC(=O)c1csc(-c2snnc2C)n1`, with 5.09 µM; and `COc1ccc(C(=O)C2CCCN(C(=O)c3ccc(CSC)o3)C2)cc1F` (configuration not stated), with 42.2 µM (inactive); and `OCC1(CCOc2ccccc2)CCN(Cc2cc(Cl)ccc2O)CC1`, with 24.1 µM (inactive).

In the case of `O=C(Nc1ccccc1C(=O)Nc1nnc(C(F)(F)F)s1)c1ccccc1`, the 50% inhibitory concentration (IC50) is 1.27 µM. For the compound `Cc1cc(C(=O)N/N=C/c2ccc([N+](=O)[O-])s2)n[nH]1`, the IC50 is 3.31 µM. Take `Cc1cc(NC(=O)C2CCCCC2)n(-c2nc3ccccc3[nH]2)n1`: the concentration for half-maximal inhibition (IC50) is 6.84 µM. In the case of `COc1ccccc1C1=NOC(COC(=O)c2ccc([N+](=O)[O-])cc2)C1` (configuration not stated), the IC50 is 18.8 µM (inactive).

Regarding `Cc1nnc(-c2ccccc2)c(=O)n1/N=C/c1c(O)ccc2ccccc12`, the IC50 is 1.31 µM. As for `CC1=NN(C(=O)c2ccccc2Cl)C(O)(c2ccccc2)C1` (configuration not stated), the IC50 is 1.43 µM. `COc1cccc(NC(=O)c2ccc(C(=O)c3ccccc3)o2)c1`: the IC50 was 3.36 µM.

`O=C(CCNc1ccc(F)cc1)c1ccco1`: the IC50 is 6.12 µM. Turning to `O=C(NC1CC2CCC1C2)C1COc2ccccc2O1` (configuration not stated), the half-maximal inhibitory concentration (IC50) is below 0.1 µM. On to `O=C(NCCC1=CCCCC1)c1coc(=O)c(Br)c1`, for which the IC50 is 23.7 µM (inactive). Consider `COc1ccc(S(=O)(=O)NCc2ccc3c(c2)cc(C)n3C)cc1`, for which the IC50 is 19.9 µM (inactive).
